Experimental data reported in patent US9328374B2, “Selective culture medium and method for detecting carbapenem-resistant bacteria in a test sample” (Institut National de la Sante et de la Recherche Medicale …, priority 2011, dated 2016).

Columns and labels:
C. koseri = assay: MIC of imipenem, ertapenem and meropenem; assay type: cell-based
K. pneumoniae = assay: MIC of imipenem, ertapenem and meropenem; assay type: cell-based, Klebsiella pneumoniae

C[C@@H](O)[C@H]1C(=O)N2C(C(=O)O)=C(SCCN=CN)C[C@H]12 [IPM, imipenem]
MIC (C. koseri; C. koseri ROU, OXA-48): 0.38 µg/mL
MIC (C. koseri; C. koseri VER (OXA-48)): 0.75 µg/mL
MIC (C. koseri; C. koseri VER, OXA-48): 0.75 µg/mL
MIC (C. koseri; strain C. koseri VER, OXA-48): 0.75 µg/mL
MIC (K. pneumoniae; K. pneumoniae 1 OMA (NDM-1 + CTX-M-15 + OXA-1 + OXA-9)): >32 µg/mL
MIC (K. pneumoniae; K. pneumoniae 2 OLA (NDM-1 + OXA-1)): 1.5 µg/mL
MIC (K. pneumoniae; K. pneumoniae 7 AFR (NDM-1 + OXA-1 + CTX-M-15 + CMY-6 + TEM-1)): >32 µg/mL
MIC (K. pneumoniae; K. pneumoniae 7AFR, NDM-1 + TEM-1 + CTX-M-15 + CMY-6 + OXA-1): >32 µg/mL
MIC (K. pneumoniae; K. pneumoniae 0227, SHV-1, non-carbapenemase producer): 0.19 µg/mL
MIC (K. pneumoniae; K. pneumoniae 588, KPC-2 + TEM-1 + SHV-11 + OXA-9): 24 µg/mL
MIC (K. pneumoniae; K. pneumoniae 1022, SHV-2a + SHV-28, non-carbapenemase producer): 0.5 µg/mL
MIC (K. pneumoniae; K. pneumoniae 1025 (CTX-M-14 + TEM-1 + SHV-11)): 0.12 µg/mL
MIC (K. pneumoniae; K. pneumoniae 1025, CTX-M-14 + TEM-1 + SHV-11, non-carbapenemase producer): 0.12 µg/mL
MIC (K. pneumoniae; K. pneumoniae 2303, KPC-2 + SHV-11): >32 µg/mL
MIC (K. pneumoniae; K. pneumoniae 6642 GEN (NDM-1 + CTX-M-15 + OXA-1 + OXA-10)): 1 µg/mL
MIC (K. pneumoniae; K. pneumoniae 6642 GEN, NDM-1 + CTX-M-15 + OXA-1 + OXA-10): 1 µg/mL
MIC (K. pneumoniae; K. pneumoniae 6759 GEN (NDM-1 + CTX-M-15 + OXA-1 + OXA-9 + OXA-10 + CMY16)): 12 µg/mL
MIC (K. pneumoniae; K. pneumoniae 6759 GEN, NDM-1 + CTX-M-15 + CMY-16 + OXA-1 + OXA-9 + OXA-10): 12 µg/mL
MIC (K. pneumoniae; K. pneumoniae 7725 (SHV-1)): 0.19 µg/mL
MIC (K. pneumoniae; K. pneumoniae 7725, SHV-1, non-carbapenemase producer): 0.19 µg/mL
MIC (K. pneumoniae; K. pneumoniae 10112, CTX-M-15 + TEM-1 + SHV-11, non-carbapenemase producer): 0.5 µg/mL
MIC (K. pneumoniae; K. pneumoniae 0404020, VIM-1+ SHV-5): >32 µg/mL
MIC (K. pneumoniae; K. pneumoniae 0404024, VIM-1): >32 µg/mL
MIC (K. pneumoniae; K. pneumoniae 0511135, VIM-1+ SHV-12): >32 µg/mL
MIC (K. pneumoniae; K. pneumoniae 648236 (SHV-2a)): 0.25 µg/mL
MIC (K. pneumoniae; K. pneumoniae 648236, SHV-2a, non-carbapenemase producer, porin deficiency): 0.25 µg/mL
MIC (K. pneumoniae; K. pneumoniae 0709121, IMP-1): 1.5 µg/mL
MIC (K. pneumoniae; K. pneumoniae 0709124, IMP-1 + TEM-15): 8 µg/mL
MIC (K. pneumoniae; K. pneumoniae 0709125, IMP-1 + TEM-1 + SHV-12): 1.5 µg/mL
MIC (K. pneumoniae; K. pneumoniae 0709127, IMP-1 + TEM-1): 0.5 µg/mL
MIC (K. pneumoniae; K. pneumoniae A28006, KPC-2 + TEM-1 + CTX-M-2 + SHV-11): 16 µg/mL
MIC (K. pneumoniae; K. pneumoniae A33504, KPC-2 + TEM-1 + SHV-11 + CTX-M-2 + OXA-9): >32 µg/mL
MIC (K. pneumoniae; K. pneumoniae AEL, OXA-48 + CTX-M-15 + SHV-28 + OXA-1): 0.5 µg/mL
MIC (K. pneumoniae; K. pneumoniae ALE (CTX-M-15 + SHV-1)): 1 µg/mL
MIC (K. pneumoniae; K. pneumoniae ALE, CTX-M-15 + SHV-1, non-carbapenemase producer, porin deficiency): 1 µg/mL
MIC (K. pneumoniae; K. pneumoniae AMS (OXA-48 + TEM-1 + CTX-M-15 + OXA-1)): 0.5 µg/mL
MIC (K. pneumoniae; K. pneumoniae AMS, OXA-48 + TEM-1 + CTX-M-15 + OXA-1): 0.5 µg/mL
MIC (K. pneumoniae; K. pneumoniae BAJ (OXA-48 + TEM-1 + CTX-M-15 + SHV-28)): 0.5 µg/mL
MIC (K. pneumoniae; K. pneumoniae BAJ, OXA-48 + TEM-1 + CTX-M-15 + SHV-28): 0.5 µg/mL
MIC (K. pneumoniae; K. pneumoniae BED (CTX-M-15 + TEM-1 + SHV-1; Table 8: SHV-11)): 1.5 µg/mL
MIC (K. pneumoniae; K. pneumoniae BED, CTX-M-15 + TEM-1 + SHV-11, non-carbapenemase producer, porin deficiency): 1.5 µg/mL
MIC (K. pneumoniae; K. pneumoniae BEL (OXA-48)): 1 µg/mL
MIC (K. pneumoniae; K. pneumoniae BEL, OXA-48): 1 µg/mL
MIC (K. pneumoniae; K. pneumoniae BEN (OXA-48 + TEM-1 + CTX-M-15 + SHV-28)): 0.38 µg/mL
MIC (K. pneumoniae; K. pneumoniae BEN, OXA-48 + TEM-1 + CTX-M-15 + SHV-28): 0.38 µg/mL
MIC (K. pneumoniae; K. pneumoniae BER (TEM-1 + SHV-28)): 1 µg/mL
MIC (K. pneumoniae; K. pneumoniae BER, SHV-28 + TEM-1, non-carbapenemase producer, porin deficiency): 1 µg/mL
MIC (K. pneumoniae; K. pneumoniae BEY (OXA-48 + CTX-M-15 + TEM-1)): 0.38 µg/mL
MIC (K. pneumoniae; K. pneumoniae BEY, OXA-48 + TEM-1 + CTX-M-15): 0.38 µg/mL
MIC (K. pneumoniae; K. pneumoniae BIC (OXA-48)): 0.5 µg/mL
MIC (K. pneumoniae; K. pneumoniae BIC, OXA-48): 0.5 µg/mL
MIC (K. pneumoniae; K. pneumoniae BOU, OXA-48): 0.38 µg/mL
MIC (K. pneumoniae; K. pneumoniae CHA (OXA-48 + TEM-1)): 0.38 µg/mL
MIC (K. pneumoniae; K. pneumoniae CHA, OXA-48 + TEM-1): 0.38 µg/mL
MIC (K. pneumoniae; K. pneumoniae COL (KPC-2 + TEM-1 + SHV-1 + CTX-M-15)): 4 µg/mL
MIC (K. pneumoniae; K. pneumoniae COO (CTX-M-15 + SHV28)): 8 µg/mL
MIC (K. pneumoniae; K. pneumoniae COO, CTX-M-15 + SHV-28, non-carbapenemase producer, porin deficiency): 8 µg/mL
MIC (K. pneumoniae; K. pneumoniae DAL (OXA-48 + CTX-M-15 + TEM-1)): 0.38 µg/mL
MIC (K. pneumoniae; K. pneumoniae DAL, OXA-48 + TEM-1 + CTX-M-15): 0.38 µg/mL
MIC (K. pneumoniae; K. pneumoniae DIA, OXA-48 + TEM-1b + CTX-M-15 + SHV-11 + OXA-1): >32 µg/mL
MIC (K. pneumoniae; K. pneumoniae DUW, OXA-48 + TEM-1 + CTX-M-15 + SHV-28): 32 µg/mL
MIC (K. pneumoniae; K. pneumoniae EGY (OXA-48 + CTX-M-15)): 2 µg/mL
MIC (K. pneumoniae; K. pneumoniae EGY, OXA-48 + CTX-M-15): 2 µg/mL
MIC (K. pneumoniae; K. pneumoniae ELK (OXA-48 + TEM-1 + CTX-M-15 + SHV-11)): 0.5 µg/mL
MIC (K. pneumoniae; K. pneumoniae ELK, OXA-48 + TEM-1 + CTX-M-15 + SHV-11): 0.5 µg/mL
MIC (K. pneumoniae; K. pneumoniae ENN, VIM-1+ SHV-5): 0.5 µg/mL
MIC (K. pneumoniae; K. pneumoniae FOS (CTX-M-15 + TEM-1 + SHV-11)): 6 µg/mL
MIC (K. pneumoniae; K. pneumoniae FOS, CTX-M-15 + TEM-1 + SHV-11, non-carbapenemase producer, porin deficiency): 6 µg/mL
MIC (K. pneumoniae; K. pneumoniae GES, KPC-2 + TEM-1 + SHV-11): 6 µg/mL
MIC (K. pneumoniae; K. pneumoniae HOL (OXA-181 + CTX-M-15)): 1 µg/mL
MIC (K. pneumoniae; K. pneumoniae HOL, OXA-181 + CTX-M-15): 1 µg/mL
MIC (K. pneumoniae; K. pneumoniae HPA, OXA-48 + TEM-1 + CTX-M-15 + OXA-1): 1.5 µg/mL
MIC (K. pneumoniae; K. pneumoniae IND (NDM-1 + OXA-1 + CTX-M-15)): 1 µg/mL
MIC (K. pneumoniae; K. pneumoniae KAM, KPC-3 + TEM-1 + SHV-11): 8 µg/mL
MIC (K. pneumoniae; K. pneumoniae KDH (DHA-2)): 0.12 µg/mL
MIC (K. pneumoniae; K. pneumoniae KDH, DHA-2, non-carbapenemase producer, overexpressed AmpC): 0.12 µg/mL
MIC (K. pneumoniae; K. pneumoniae KI2, NDM-1 + CTX-M-15 + OXA-1): 1 µg/mL
